Common to all, as to assay type: cell-based
One assay has as its target T1, HRH2 (Homo sapiens, UniProt P25021).
T1 construct: expressed in transfected cells
The assay is described as follows: SAFETYScan GPCR cAMP, Agonist. An excerpt: (§1) Supplement jm1c02175_si_002.xlsx, sheet "SAFETYScan" | column: RC50 (uM); Max Response

A further assay has as its target T2, HTR1B (Homo sapiens, UniProt P28222).
T2 construct: expressed in transfected cells
Put plainly: SAFETYScan GPCR cAMP, Agonist.
From the text: as §1

In a further assay the target is T3, ADRA2A (Homo sapiens, UniProt P08913).
T3 construct: expressed in transfected cells
T3 sequence (P08913 1-465): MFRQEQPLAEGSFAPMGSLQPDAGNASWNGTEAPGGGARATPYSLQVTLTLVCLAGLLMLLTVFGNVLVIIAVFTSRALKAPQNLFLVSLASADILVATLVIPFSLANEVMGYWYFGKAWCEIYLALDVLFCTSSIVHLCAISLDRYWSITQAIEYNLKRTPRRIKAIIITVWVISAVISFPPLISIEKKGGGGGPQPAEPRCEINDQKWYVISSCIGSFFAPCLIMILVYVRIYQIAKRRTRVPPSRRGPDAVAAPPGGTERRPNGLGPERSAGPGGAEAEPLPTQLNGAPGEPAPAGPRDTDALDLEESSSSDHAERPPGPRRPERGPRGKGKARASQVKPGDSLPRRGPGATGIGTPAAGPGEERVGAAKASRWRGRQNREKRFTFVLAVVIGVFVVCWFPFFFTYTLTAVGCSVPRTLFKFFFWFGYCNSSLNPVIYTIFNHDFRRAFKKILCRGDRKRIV
The assay is described as follows: SAFETYScan GPCR cAMP, Agonist.
From the text: as §1

The next assay has as its target OPRD1 (Homo sapiens, UniProt P41143). Put plainly: SAFETYScan GPCR cAMP, Agonist.
From the text: as §1

The next assay addresses T4, GR (Homo sapiens, UniProt P04150).
T4 sequence (P04150 1-777): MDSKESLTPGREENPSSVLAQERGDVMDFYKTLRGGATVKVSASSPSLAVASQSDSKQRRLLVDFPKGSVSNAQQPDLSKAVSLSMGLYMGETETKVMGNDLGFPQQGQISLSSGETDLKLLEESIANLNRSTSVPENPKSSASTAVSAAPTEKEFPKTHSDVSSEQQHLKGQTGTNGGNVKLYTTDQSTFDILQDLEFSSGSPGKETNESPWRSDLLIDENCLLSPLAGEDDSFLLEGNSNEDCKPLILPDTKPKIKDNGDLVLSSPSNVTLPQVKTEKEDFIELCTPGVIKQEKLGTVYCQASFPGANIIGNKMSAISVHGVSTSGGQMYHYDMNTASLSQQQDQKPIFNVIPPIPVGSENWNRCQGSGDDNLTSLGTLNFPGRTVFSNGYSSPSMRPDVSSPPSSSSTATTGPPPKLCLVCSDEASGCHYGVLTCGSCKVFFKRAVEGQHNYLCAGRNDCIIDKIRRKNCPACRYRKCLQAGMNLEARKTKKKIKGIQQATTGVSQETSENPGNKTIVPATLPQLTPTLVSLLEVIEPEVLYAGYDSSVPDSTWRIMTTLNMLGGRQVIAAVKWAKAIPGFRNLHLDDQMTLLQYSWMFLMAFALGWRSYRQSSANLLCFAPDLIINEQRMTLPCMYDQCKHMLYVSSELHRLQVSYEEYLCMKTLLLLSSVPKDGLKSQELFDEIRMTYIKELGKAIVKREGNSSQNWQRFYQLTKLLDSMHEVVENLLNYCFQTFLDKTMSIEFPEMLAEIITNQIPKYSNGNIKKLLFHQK
The assay is described as follows: SAFETYScan NHR Protein Interaction, Antagonist.
From the text: as §1

For another assay, the target named is ADORA2A (Homo sapiens, UniProt P29274). Put plainly: SAFETYScan GPCR Calcium Flux, Antagonist.
Sequence of ADORA2A (P29274 whole entry): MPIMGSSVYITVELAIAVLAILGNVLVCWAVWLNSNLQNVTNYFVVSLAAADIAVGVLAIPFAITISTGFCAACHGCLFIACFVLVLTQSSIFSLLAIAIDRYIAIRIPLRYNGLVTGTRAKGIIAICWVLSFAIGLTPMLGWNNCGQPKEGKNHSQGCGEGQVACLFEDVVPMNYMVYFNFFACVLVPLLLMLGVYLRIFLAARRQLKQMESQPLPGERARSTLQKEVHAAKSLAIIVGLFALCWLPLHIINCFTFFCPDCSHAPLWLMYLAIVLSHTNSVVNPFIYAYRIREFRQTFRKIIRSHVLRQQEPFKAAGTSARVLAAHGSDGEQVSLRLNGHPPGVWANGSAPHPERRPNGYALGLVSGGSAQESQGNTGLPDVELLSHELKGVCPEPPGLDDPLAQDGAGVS
From the text: as §1

A further assay concerns the target HRH1 (Homo sapiens, UniProt P35367). The assay is described as follows: SAFETYScan GPCR Calcium Flux, Antagonist.
From the text: as §1

For another assay, the target named is AVPR1A (Homo sapiens, UniProt P37288). The assay is described as follows: SAFETYScan GPCR Calcium Flux, Antagonist.
Sequence of AVPR1A (P37288 whole entry): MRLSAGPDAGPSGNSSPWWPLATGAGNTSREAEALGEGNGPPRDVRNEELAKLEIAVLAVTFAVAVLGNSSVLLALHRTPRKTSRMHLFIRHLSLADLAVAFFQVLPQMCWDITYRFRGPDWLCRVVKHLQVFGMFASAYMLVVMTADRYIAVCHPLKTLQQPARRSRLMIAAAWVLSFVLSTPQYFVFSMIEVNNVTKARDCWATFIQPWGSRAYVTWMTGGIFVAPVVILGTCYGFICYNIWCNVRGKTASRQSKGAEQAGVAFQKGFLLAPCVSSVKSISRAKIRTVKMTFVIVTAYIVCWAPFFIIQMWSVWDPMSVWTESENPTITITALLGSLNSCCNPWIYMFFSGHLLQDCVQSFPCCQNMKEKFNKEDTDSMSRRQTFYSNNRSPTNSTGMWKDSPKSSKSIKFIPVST
From the text: as §1

A further assay concerns the target CHRM3 (Homo sapiens, UniProt P20309). The assay is described as follows: SAFETYScan GPCR Calcium Flux, Antagonist.
From the text: as §1

The target in the next assay is T5, CCKAR (Homo sapiens, UniProt P32238).
T5 sequence (P32238 1-428): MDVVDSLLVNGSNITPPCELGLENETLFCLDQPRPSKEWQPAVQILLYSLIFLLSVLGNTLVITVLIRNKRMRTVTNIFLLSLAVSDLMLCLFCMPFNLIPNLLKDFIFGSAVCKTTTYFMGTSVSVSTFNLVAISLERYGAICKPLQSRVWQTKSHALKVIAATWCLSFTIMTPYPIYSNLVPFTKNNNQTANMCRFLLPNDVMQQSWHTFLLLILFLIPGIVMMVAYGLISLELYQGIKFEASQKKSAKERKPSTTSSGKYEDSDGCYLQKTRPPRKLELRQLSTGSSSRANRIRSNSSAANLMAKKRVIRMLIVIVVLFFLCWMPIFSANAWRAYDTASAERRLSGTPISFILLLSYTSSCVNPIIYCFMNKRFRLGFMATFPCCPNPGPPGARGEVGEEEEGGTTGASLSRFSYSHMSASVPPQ
The assay is described as follows: SAFETYScan GPCR Calcium Flux, Antagonist.
From the text: as §1

The target of a further assay is HTR2A (Homo sapiens, UniProt P28223). Put plainly: SAFETYScan GPCR Calcium Flux, Antagonist.
Sequence of HTR2A (P28223 whole entry): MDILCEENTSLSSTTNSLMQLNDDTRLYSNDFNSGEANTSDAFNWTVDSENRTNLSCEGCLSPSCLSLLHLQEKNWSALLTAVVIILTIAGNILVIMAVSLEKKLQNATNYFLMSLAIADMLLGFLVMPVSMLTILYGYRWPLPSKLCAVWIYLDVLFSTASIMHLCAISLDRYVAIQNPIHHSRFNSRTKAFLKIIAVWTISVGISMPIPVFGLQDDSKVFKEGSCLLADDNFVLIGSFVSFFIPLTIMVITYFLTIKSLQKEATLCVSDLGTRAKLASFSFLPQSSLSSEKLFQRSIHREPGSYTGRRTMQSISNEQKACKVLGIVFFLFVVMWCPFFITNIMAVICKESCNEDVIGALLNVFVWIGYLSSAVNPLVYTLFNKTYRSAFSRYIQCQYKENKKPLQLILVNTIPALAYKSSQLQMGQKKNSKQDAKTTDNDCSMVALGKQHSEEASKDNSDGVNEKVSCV
From the text: as §1

A further assay addresses T6, ADRA1A (Homo sapiens, UniProt P35348).
T6 sequence (P35348 1-466): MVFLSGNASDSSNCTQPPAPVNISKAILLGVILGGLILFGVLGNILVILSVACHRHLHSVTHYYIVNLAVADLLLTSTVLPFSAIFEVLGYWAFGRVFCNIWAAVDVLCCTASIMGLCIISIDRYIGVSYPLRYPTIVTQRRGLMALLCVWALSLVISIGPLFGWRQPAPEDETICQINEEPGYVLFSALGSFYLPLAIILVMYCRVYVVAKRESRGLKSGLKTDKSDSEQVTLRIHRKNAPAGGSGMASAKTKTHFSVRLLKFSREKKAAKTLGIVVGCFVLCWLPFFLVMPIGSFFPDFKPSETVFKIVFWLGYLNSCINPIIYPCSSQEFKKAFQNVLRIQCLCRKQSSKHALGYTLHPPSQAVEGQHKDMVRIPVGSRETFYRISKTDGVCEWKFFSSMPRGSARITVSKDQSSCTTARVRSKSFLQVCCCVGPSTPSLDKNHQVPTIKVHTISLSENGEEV
The assay is described as follows: SAFETYScan GPCR Calcium Flux, Antagonist.
From the text: as §1

Structures are written as SMILES. Some results are limits rather than exact numbers.

T1 sequence (P25021 whole entry): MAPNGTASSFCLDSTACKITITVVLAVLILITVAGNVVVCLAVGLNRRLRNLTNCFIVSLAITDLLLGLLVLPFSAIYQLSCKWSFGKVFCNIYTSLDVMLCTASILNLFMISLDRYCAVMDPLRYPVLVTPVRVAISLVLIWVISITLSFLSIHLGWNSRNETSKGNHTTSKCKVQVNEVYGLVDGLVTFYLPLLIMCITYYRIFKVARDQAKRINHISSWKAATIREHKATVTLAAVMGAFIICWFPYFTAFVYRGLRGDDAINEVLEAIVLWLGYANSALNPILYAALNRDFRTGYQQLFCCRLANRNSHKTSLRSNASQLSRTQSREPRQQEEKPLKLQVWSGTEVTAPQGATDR
Sequence of CHRM3 (P20309 whole entry): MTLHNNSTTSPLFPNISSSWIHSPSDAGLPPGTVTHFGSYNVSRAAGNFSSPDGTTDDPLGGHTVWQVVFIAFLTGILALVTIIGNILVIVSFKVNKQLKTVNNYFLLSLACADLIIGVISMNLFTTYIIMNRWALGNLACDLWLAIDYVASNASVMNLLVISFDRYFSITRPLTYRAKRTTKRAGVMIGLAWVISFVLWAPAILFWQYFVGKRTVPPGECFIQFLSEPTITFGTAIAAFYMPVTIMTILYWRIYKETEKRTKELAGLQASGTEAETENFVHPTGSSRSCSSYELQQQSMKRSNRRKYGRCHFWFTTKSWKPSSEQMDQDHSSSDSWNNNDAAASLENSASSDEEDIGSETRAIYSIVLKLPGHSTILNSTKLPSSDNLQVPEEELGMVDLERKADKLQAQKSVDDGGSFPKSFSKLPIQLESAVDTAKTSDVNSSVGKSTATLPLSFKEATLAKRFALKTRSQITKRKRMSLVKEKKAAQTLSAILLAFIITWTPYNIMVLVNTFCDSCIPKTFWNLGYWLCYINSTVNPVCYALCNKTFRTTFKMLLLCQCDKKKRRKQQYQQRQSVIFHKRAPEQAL
Sequence of OPRD1 (P41143 whole entry, species assumed): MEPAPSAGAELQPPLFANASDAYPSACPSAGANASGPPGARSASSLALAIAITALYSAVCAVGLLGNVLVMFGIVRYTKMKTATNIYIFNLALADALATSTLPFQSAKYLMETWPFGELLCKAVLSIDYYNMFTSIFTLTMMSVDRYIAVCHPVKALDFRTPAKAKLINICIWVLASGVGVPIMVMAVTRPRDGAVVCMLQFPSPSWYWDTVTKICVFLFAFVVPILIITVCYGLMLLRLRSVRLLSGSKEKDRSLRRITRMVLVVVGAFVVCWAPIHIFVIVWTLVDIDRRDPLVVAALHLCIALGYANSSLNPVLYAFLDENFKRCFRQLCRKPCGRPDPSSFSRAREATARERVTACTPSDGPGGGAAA
Sequence of HRH1 (P35367 whole entry): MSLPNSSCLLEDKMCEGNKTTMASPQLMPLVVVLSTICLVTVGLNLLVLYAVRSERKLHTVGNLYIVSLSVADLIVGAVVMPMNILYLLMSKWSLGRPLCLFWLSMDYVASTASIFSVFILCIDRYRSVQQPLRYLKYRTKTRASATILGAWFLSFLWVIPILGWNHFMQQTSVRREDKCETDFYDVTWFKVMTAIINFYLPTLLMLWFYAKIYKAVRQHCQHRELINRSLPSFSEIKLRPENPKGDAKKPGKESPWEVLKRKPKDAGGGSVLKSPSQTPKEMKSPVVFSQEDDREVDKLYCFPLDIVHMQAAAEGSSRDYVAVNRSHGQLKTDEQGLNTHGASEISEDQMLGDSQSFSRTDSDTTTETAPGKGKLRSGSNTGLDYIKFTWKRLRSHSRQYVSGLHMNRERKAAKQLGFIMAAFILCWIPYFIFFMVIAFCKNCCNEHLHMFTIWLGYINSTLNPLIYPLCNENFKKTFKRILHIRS
T2 sequence (P28222 whole entry): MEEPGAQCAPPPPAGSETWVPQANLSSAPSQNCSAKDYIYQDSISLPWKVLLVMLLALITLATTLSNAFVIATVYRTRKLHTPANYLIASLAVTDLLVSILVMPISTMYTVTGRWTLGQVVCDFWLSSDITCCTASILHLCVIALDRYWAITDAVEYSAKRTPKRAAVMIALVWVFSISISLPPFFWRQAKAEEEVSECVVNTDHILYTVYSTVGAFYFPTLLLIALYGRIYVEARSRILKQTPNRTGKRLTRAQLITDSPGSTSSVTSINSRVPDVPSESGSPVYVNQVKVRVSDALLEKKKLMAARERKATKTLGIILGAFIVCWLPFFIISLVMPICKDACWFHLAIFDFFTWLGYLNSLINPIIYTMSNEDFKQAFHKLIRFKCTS

Regarding `C[C@H]1C[C@@H](O)CN(c2ncc(Cl)c(Nc3ccc4c(c3)c3c(c(=O)n4C)OCC(F)(F)[C@H](C4CC4)N3)n2)C1` [12a CCT373566, (S)-10-((5-Chloro-2-((3R,5S)-3-hydroxy-5-methylpiperidin-1-yl)pyrimidin-4-yl)amino)-2-cyclopropyl-3,3-difluoro-7-methyl-1,2,3,4-tetrahydro-[1,4]oxazepino[2,3-c]quinolin-6(7H)-one], the Emax on HRH2 (read-out: Max Response) was found to be 0%; at HTR1B (read-out: Max Response) it was 21.5%; at ADRA2A (read-out: Max Response) it was 33.6%; at OPRD1 (read-out: Max Response), 60.3%; at GR (read-out: Max Response), 2.11%; at ADORA2A (read-out: Max Response) it was 4.91%. Moreover, the Emax on HRH1 (read-out: Max Response) came out at 0%; at AVPR1A (read-out: Max Response) it was 0%; on CHRM3 (read-out: Max Response) it was 0%; at CCKAR (read-out: Max Response), 0%; at HTR2A (read-out: Max Response), 1.76%; at ADRA1A (read-out: Max Response), 0%. Moreover, the concentration for a half-maximal effect (EC50) on HRH2 (read-out: RC50 (EC50)) was over 10 µM; at HTR1B (read-out: RC50 (EC50)) it was over 10 µM; at ADRA2A (read-out: RC50 (EC50)), over 10 µM; on OPRD1 (read-out: RC50 (EC50)), 4.95 µM. Besides, the IC50 on GR (read-out: RC50 (IC50)), on ADORA2A (read-out: RC50 (IC50)), on HRH1 (read-out: RC50 (IC50)), at AVPR1A (read-out: RC50 (IC50)), at CHRM3 (read-out: RC50 (IC50)) and on CCKAR (read-out: RC50 (IC50)) was over 10 µM throughout. Besides, the 50% inhibitory concentration (IC50) at HTR2A (read-out: RC50 (IC50)) and on ADRA1A (read-out: RC50 (IC50)) was over 10 µM in each case.
